This note sets out measurements from article PMC12481613, “Boldine as a neuroprotective agent against motor neuron degeneration in models of amyotrophic lateral sclerosis” (Frontiers in Cellular Neuroscience, 2025).

This experiment concerns the target T1, connexin 43 (Cx43) hemichannel (Homo sapiens, UniProt P17302).
T1 construct: gene GJA1; human Cx43 tagged with GFP (hCx43-GFP)
Kind of experiment: TO-PRO-3 dye uptake in HeLa cells transfected with hCx43-GFP, Ca2+-free HBSS. It counts as cell-based.

T1 sequence (P17302 2-382): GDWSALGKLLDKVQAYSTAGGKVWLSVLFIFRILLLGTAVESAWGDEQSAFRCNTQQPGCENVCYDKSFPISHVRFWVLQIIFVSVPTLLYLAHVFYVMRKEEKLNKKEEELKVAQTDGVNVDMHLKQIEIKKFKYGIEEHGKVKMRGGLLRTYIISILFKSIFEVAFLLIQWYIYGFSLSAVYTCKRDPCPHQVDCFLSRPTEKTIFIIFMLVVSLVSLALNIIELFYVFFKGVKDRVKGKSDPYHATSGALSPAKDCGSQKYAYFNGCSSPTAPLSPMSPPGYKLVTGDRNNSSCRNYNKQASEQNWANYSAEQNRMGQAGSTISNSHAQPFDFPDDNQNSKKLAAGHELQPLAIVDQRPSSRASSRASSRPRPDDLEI

In the case of `COc1cc2c(cc1O)C[C@H]1c3c(cc(O)c(OC)c3-2)CCN1C` [boldine], 12.5 µM corresponded to half-maximal inhibition (IC50).
